Data taken from ChEMBL document CHEMBL4732086, “Targeting nuclear protein TDP-43 by cell division cycle kinase 7 inhibitors: A new therapeutic approach for amyotrophic lateral sclerosis” (Eur J Med Chem, 2021).
Calls of active or inactive are those of the source. No cut-off for these calls is given here.

Tests used:
[1] = biological target: Aurora kinase B (Homo sapiens) (UniProt Q96GD4); test: Inhibition of recombinant full length His-tagged human AURKB expressed in baculovirus expression system using Ser/Thr-01 peptide as substrate at 10 uM incubated for 60 mins in presence of ATP by Z'-LYTE assay
[2] = biological target: CDC7/DBF4 (Cell division cycle 7-related protein kinase/Activator of S phase kinase) (Homo sapiens) (UniProt Q9UBU7+O00311); test: Competitive inhibition of recombinant human full length N-terminal GST tagged CDC7/Dbf4 expressed in baculovirus infected Sf9 insect cells assessed as inhibition of substrate phosphorylation using PDKtide as substrate at 5 to 10 uM measured after 60 mins by ATP assay; conditions: dose 5-10 µM
[3] = biological target: T1, Cyclin-dependent kinase 5/CDK5 activator 1 (Homo sapiens) (UniProt Q00535+Q15078); test: Inhibition of recombinant full length human GST/His-tagged CDK5/p25 expressed in baculovirus expression system using serine/threonine-12 peptide as substrate at 10 uM incubated for 60 mins in presence of ATP by Z'-LYTE assay
[4] = biological target: T1, Cyclin-dependent kinase 5/CDK5 activator 1 (Homo sapiens); test: Inhibition of recombinant full length human GST/His-tagged CDK5/p35 using serine/threonine-12 peptide as substrate at 10 uM incubated for 60 mins in presence of ATP by Z'-LYTE assay; assay type: protein-complex assay
[5] = biological target: Casein kinase II subunit alpha (Homo sapiens) (UniProt P68400); test: Inhibition of recombinant human full length His-tagged CSNK2A1 expressed in baculovirus expression system using serine/threonine-11 peptide as substrate at 10 uM incubated for 60 mins in presence of ATP by Z'-LYTE assay
[6] = biological target: Dual specificity tyrosine-phosphorylation-regulated kinase 1B (Homo sapiens) (UniProt Q9Y463); test: Inhibition of recombinant human full length GST-tagged DYRK1B expressed in baculovirus expression system using serine/threonine-18 peptide as substrate at 10 uM incubated for 60 mins in presence of ATP by Z'-LYTE assay
[7] = biological target: Receptor-type tyrosine-protein kinase FLT3 (Homo sapiens) (UniProt P36888); test: Inhibition of recombinant human His-tagged Flt3 expressed in baculovirus expression system using Tyr 02 peptide as substrate at 10 uM incubated for 60 mins in presence of ATP by Z'-LYTE assay
[8] = biological target: Tyrosine-protein kinase Fyn (Homo sapiens) (UniProt P06241); test: Inhibition of recombinant human His-tagged Fyn expressed in baculovirus expression system using Tyr 02 peptide as substrate at 10 uM incubated for 60 mins in presence of ATP by Z'-LYTE assay
[9] = biological target: Glycogen synthase kinase-3 alpha (Homo sapiens) (UniProt P49840); test: Inhibition of recombinant human full length GST-tagged GSK3A expressed in baculovirus expression system using serine/threonine-09 peptide as substrate at 10 uM incubated for 60 mins in presence of ATP by Z'-LYTE assay
[10] = biological target: Tyrosine-protein kinase JAK2 (Homo sapiens) (UniProt O60674); test: Inhibition of recombinant human GST-tagged JAK2 expressed in baculovirus expression system using Tyr-06 peptide as substrate at 10 uM incubated for 60 mins in presence of ATP by Z'-LYTE assay
[11] = biological target: T2, Mitogen-activated protein kinase 13 (Homo sapiens) (UniProt O15264); test: Inhibition of recombinant human full length His-tagged MAPK13 expressed in baculovirus expression system using serine/threonine-03 peptide as substrate at 10 uM incubated for 60 mins in presence of ATP by Z'-LYTE assay
T2 sequence (whole entry): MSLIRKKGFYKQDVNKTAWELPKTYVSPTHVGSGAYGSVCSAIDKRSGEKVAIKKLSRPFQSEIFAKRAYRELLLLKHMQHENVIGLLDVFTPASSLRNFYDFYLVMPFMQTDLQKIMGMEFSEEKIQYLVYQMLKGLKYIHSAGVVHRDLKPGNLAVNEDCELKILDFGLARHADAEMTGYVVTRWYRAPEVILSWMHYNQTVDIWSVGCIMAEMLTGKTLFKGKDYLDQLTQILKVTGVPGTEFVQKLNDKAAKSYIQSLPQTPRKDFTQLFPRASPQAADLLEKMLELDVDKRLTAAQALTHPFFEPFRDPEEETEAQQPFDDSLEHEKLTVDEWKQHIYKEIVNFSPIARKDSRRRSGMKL

[12] = biological target: Serine/threonine-protein kinase MARK1 (Homo sapiens) (UniProt Q9P0L2); test: Inhibition of recombinant human full length GST-tagged MARK1 expressed in baculovirus expression system using serine/threonine-21 peptide as substrate at 10 uM by Z'-LYTE assay; conditions: time 60.0 min
[13] = biological target: Maternal embryonic leucine zipper kinase (Homo sapiens) (UniProt Q14680); test: Inhibition of recombinant human full length GST-tagged MELK expressed in baculovirus expression system using serine/threonine-21 peptide as substrate at 10 uM by Z'-LYTE assay; conditions: time 60.0 min
[14] = biological target: Serine/threonine-protein kinase pim-1 (Homo sapiens) (UniProt P11309); test: Inhibition of recombinant human HIS-tagged PIM1 expressed in baculovirus expression system using serine/threonine-07 peptide as substrate at 10 uM by Z'-LYTE assay; conditions: time 60.0 min
[15] = biological target: cAMP-dependent protein kinase catalytic subunit alpha (Homo sapiens) (UniProt P17612); test: Inhibition of recombinant human His-tagged PRKACA expressed in Escherichia coli expression system using serine/threonine-01 peptide as substrate at 10 uM by Z'-LYTE assay; conditions: time 60.0 min
[16] = biological target: Rho-associated protein kinase 1 (Homo sapiens) (UniProt Q13464); test: Inhibition of recombinant human GST-tagged ROCK1 expressed in baculovirus expression system using serine/threonine-07 peptide as substrate at 10 uM by Z'-LYTE assay; conditions: time 60.0 min
SH-SY5Y = test: Neuroprotective activity in human SH-SY5Y cells assessed as decrease in ethacrynic acid-induced TDP-43 phosphorylation preincubated for 1 hr followed by incubation with ethacrynic acid for 24 hrs measured at 10 uM by Western blot assay; assay type: functional, cell-based

inhibition [1]	inhibition [2]	inhibition [3]	inhibition [4]	inhibition [5]	inhibition [6]	inhibition [7]	inhibition [8]	inhibition [9]	inhibition [10]	inhibition [11]	inhibition [12]	inhibition [13]	inhibition [14]	inhibition [15]	inhibition [16]	Compound	Activity (SH-SY5Y)
inactive	Active	inactive	inactive	inactive	inactive	inactive	inactive	inactive	inactive	inactive	inactive	inactive	inactive	inactive	inactive	c1ccc(CSc2ncnc3[nH]cnc23)cc1	Active
inactive	Active	inactive	inactive	inactive	inactive	inactive	inactive	inactive	inactive	inactive	inactive	inactive	inactive	inactive	inactive	Clc1cccc(CSc2ncnc3[nH]cnc23)c1	Active

Compound	inhibition [1]	inhibition [2]	inhibition [3]	inhibition [4]	inhibition [5]	inhibition [6]	inhibition [7]	inhibition [8]	inhibition [9]	inhibition [10]	inhibition [11]	inhibition [12]	inhibition [13]	inhibition [14]	inhibition [15]	inhibition [16]	Activity (SH-SY5Y)
Brc1ccccc1CSc1ncnc2[nH]cnc12	inactive	Active	inactive	inactive	inactive	inactive	inactive	inactive	inactive	inactive	inactive	inactive	inactive	inactive	inactive	inactive	Active
